GI50 and IC50 data for 2 compounds are collected here from patent publication US10894048B2, “Antitumor drug for intermittent administration of FGFR inhibitor” (priority 2013, dated 2021).

The subject of assay [1] is Human-derived gastric cancer OCUM-2MD3 cells. Conditions: OCUM-2MD3, 72 h.
Description: Human-derived gastric cancer OCUM-2MD3 cells, which overexpressed FGFR2, were subcultured daily in a Dulbecco's modified Eagle's medium (DMEM) containing 10% fetal bovine serum (FBS) at a cell density of not more than 80%. In order to initiate a test of the cell growth-inhibitory effect of the compounds, the OCUM-2MD3 cells were suspended in the above DMEM medium and seeded in a 96-well flat-bottom plate so that each well contained 3,000 cells. Then, the cells were cultured in an incubator containing 5% carbon dioxide gas at 37° C. for one day. […] The DMSO solution of the test compound was diluted with the medium used for cultivation, and the diluted solution was added to each well of the cell culture plate so that the final concentration of DMSO became 0.5%. […] The number of cells was measured at the time of the addition of the test compound and 72 hours later after culture by using a Cell Counting Kit-8 (produced by Dojindo Laboratories) according to a protocol recommended by Dojindo Laboratories. […] After completion of the reaction, the absorbance at a wavelength of 450 nm was measured by a microplate reader.
Growth inhibition rate (%)=(C−T)/(C−C0)×100 • T: absorbance of well to which test compound was added • C: absorbance of well to which test compound was not added • C0: absorbance of well measured before addition of compound
Assay [2] addresses purified recombinant human FGFR2 protein (Homo sapiens (Human), UniProt P21802). Nature of the assay: Inhibitory effect on FGFR2 kinase activity. It counts as biochemical. The following applies: ATP 75 μM.
Description: Measurement of Inhibitory Effect on FGFR2 Kinase Activity
EDTA (final concentration: 30 mM) diluted with a separation buffer (Caliper Life Sciences, Inc.) was added thereto to terminate the kinase reaction. […] The level of phosphorylation was determined from the quantitative ratio.

Sequence of purified recombinant human FGFR2 protein (P21802 22-821): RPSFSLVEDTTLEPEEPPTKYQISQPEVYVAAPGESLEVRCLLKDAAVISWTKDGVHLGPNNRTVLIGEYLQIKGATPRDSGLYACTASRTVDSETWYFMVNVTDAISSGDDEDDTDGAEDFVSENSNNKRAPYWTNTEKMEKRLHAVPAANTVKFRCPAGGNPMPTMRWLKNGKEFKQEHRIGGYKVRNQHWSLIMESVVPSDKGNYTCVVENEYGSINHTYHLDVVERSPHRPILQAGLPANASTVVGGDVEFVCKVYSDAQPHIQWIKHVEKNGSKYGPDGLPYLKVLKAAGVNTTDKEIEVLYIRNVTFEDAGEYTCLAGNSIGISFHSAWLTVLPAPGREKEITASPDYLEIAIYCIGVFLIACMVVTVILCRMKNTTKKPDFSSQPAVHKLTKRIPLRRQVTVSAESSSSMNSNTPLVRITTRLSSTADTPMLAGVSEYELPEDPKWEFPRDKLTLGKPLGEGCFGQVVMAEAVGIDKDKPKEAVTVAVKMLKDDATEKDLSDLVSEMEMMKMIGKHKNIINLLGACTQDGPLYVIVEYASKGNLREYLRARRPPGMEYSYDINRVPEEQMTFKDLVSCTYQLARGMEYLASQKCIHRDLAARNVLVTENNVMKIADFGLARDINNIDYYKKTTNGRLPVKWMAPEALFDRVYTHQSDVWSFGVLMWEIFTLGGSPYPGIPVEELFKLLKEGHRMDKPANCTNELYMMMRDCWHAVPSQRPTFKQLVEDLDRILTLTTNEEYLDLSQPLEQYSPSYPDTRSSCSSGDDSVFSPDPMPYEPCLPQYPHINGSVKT

`C=CC(=O)N1C[C@@H](n2cc(C#Cc3cc(OC)cc(OC)c3)c3c(N)ncnc32)C[C@H]1C(=O)OC` [Ex. Compound 66, (2S,4S)-methyl 1-acryloyl-4-(4-amino-5-((3,5-dimethoxyphenyl)ethynyl)-7H-pyrrolo[2,3-d]pyrimidin-7-yl)pyrrolidine-2-carboxylate]: in assay [1], the 50% growth inhibitory concentration (GI50) (in general, the concentration giving 50% growth inhibition) was < 0.0046 µM.

For the compound `CC(C)c1cc(C#Cc2nn([C@H]3CCN(C(=O)/C=C/CN(C)C)C3)c3ncnc(N)c23)cc(C(C)C)c1` [Ref. Ex. Compound 4, (S)-1-(3-(4-amino-3-((3,5-diisopropylphenyl)ethynyl)-1H-pyrazolo[3,4-d]pyrimidin-1-yl)pyrrolidin-1-yl)-4-(dimethylamino)but-2-en-1-one], the 50% inhibitory concentration (IC50) (in general, the concentration at which inhibition is half-maximal) in assay [2] is > 10 µM.
